Results on 17 compounds are retold here after patent US20130079345A1, “[…] ACTIVE DISUBSTITUTED TRIAZINE DERIVATIVES” (BAYER INTELLECTUAL PROPERTY GMBH, priority 2010, published 2013).

Structures can show the parent of a compound that is named as a salt.

What is called IC50 is the midpoint of a concentration-inhibition curve. As a reminder, the Kd is the equilibrium constant for the complex coming apart.

T2 sequence (P49336 whole entry): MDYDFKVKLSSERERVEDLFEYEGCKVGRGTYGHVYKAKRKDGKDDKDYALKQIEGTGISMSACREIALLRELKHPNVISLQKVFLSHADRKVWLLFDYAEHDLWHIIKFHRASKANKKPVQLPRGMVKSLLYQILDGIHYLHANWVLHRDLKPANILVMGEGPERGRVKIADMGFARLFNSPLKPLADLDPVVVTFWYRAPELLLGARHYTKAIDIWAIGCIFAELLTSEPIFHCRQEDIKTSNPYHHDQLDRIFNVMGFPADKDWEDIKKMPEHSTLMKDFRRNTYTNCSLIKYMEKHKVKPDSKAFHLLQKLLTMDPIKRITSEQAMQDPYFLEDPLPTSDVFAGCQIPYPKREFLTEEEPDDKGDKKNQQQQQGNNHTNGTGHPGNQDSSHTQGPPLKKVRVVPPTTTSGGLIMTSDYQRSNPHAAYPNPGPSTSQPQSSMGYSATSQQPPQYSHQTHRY
T2 sequence (P24863 whole entry partner): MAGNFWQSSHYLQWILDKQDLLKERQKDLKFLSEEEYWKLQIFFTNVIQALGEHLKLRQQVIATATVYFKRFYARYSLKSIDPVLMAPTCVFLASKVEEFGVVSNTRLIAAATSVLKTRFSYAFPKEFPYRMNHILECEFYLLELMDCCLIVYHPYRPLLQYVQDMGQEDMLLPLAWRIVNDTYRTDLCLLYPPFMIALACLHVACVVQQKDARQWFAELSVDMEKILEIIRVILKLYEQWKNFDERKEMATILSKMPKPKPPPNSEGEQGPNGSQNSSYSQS

In the first assay the target is T1, CDK2/CycE (Homo sapiens, UniProt P24941).
T1 construct: GST; purchased ProQinase GmbH (Freiburg, Germany); host or cells: insect cells (Sf-9)
The assay is described as follows: CDK2/CycE kinase assay (TR-FRET). The settings on record: ATP 10 μM, values given in μM. Type of assay: biochemical. An excerpt:
CDK2/CycE-inhibitory activity of compounds of the present invention was quantified employing the CDK2/CycE TR-FRET assay as described in the following paragraphs.
Recombinant fusion proteins of glutathione S-transferase (GST) and human CDK2 and of GST and human CycE, expressed in insect cells (Sf-9) and purified by glutathion-sepharose affinity chromatography, were purchased from ProQinase GmbH (Freiburg, Germany). A biotinylated peptide biotin-Ttds-[…] (C-terminus in amide form), which can be purchased from e.g the company JERINI Peptide Technologies (Berlin, Germany), was used as a substrate for the kinase reaction.
For the assay, 50 nl of a 100-fold concentrated solution of the test compound in DMSO was pipetted into a well of a black low-volume 384-well microtiter plate (Greiner Bio-One, Frickenhausen, Germany), 2 μl of a solution of CDK2/CycE in aqueous assay buffer [50 mM Tris/HCl pH 8.0], 10 mM MgCl2, 1.0 mM dithiothreitol, 0.1 mM sodium ortho-vanadate, 0.01% (v/v) Nonidet-P40 (Sigma)] were added. The mixture was incubated at 22° C. for 15 min to allow pre-binding of the test compounds to the enzyme before the start of the kinase reaction. […] The resulting mixture was incubated at 22° C. for 25 minutes. The concentration of CDK2/CycE was adjusted depending on the activity of the enzyme lot and was chosen appropriately for measurements in the linear range of the assay. Typical concentrations were in the range of 130 ng/ml. The reaction was stopped by the addition of 5 μl of a solution of TR-FRET detection reagents (0.2 μM streptavidine-XL and 1 nM anti-RB(pSer807/pSer811)-antibody from BD Pharmingen [#558389] and 1.2 nM LANCE EU-W1024 labeled anti-mouse IgG antibody [Perkin-Elmer, product no. AD0077]) in an aqueous EDTA-solution (100 mM EDTA, 0.2% (w/v) bovine serum albumin in 100 mM HEPES/NaOH, pH 7.0).
The resulting mixture was incubated at 22° C. for one hour to allow the formation of a complex between the phosphorylated biotinylated peptide and the detection reagents. Subsequently, the amount of phosphorylated substrate was evaluated by measuring the resonance energy transfer from the Eu-chelate to the streptavidine-XL. Therefore, the fluorescence emissions at 620 nm and 665 nm after excitation at 350 nm were measured in a high time-resolved fluorometry (HTRF) reader, e.g. a Rubystar (BMG Labtechnologies, Offenburg, Germany) or a Viewlux (Perkin-Elmer). The ratio of the emissions at 665 nm and at […] was taken as a measure for the amounts of phosphorylated substrate. The data were normalised, i.e. enzyme reaction without inhibitor corresponds to 0% inhibition, and all other assay components in the absence of the enzyme correspond to 100% inhibition. IC50 values were calculated by a 4-parameter fit using in-house software.
A general note: TR-FRET usually uses a lanthanide donor and a delayed reading to cut background.
For the compound `CNS(=O)(=O)Cc1cccc(Nc2cc(-c3ccccc3OC)ncn2)c1` [Ref2, C-{3-[6-(2-Methoxy-phenyl)-pyrimidin-4-ylamino]-phenyl}-N-methyl methanesulfonamide, reference compound], the IC50 stood at 1.6 µM.

`COc1ccccc1-c1cc(Nc2cccc(CS(=O)(=O)N(C)C)c2)ncn1` [Ref4, C-{3-[6-(2-Methoxy-phenyl)-pyrimidin-4-ylamino]-phenyl}-N,N-dimethylmethanesulfonamide, reference compound]: the IC50 stood at 2.7 µM.

As to `N#Cc1cc(F)ccc1-c1ncnc(Nc2cccc(CS(N)(=O)=O)c2)n1` [Compound U3, 1-(3-{[4-(2-cyano-4-fluorophenyl)-1,3,5-triazin-2-yl]amino}phenyl)methanesulfonamide], the IC50 was 14 µM. With `COc1ccccc1-c1ncnc(Nc2cccc(CS(N)(=O)=O)c2)n1` [Compound B1, 3-[(4-(2-Methoxyphenyl)-1,3,5-triazin-2-yl)amino]benzenemethanesulfonamide], the midpoint of inhibition, the IC50, lay at 1.8 µM.

As for `NS(=O)(=O)Cc1cccc(Nc2ncnc(-c3ccccc3Oc3ccccc3)n2)c1` [Compound B14, 1-(3-{[4-(2-phenoxyphenyl)-1,3,5-triazin-2-yl]amino}phenyl)methanesulfonamide], the midpoint of inhibition, the IC50, lay at 4 µM.

Staying with this assay, now noted: ATP 10 μM, values in nM.
In the case of `COc1cc(F)c(F)cc1-c1ncnc(Nc2cccc(CS(N)(=O)=O)c2)n1` [Compound U7, 1-(3-{[4-(4,5-difluoro-2-methoxyphenyl)-1,3,5-triazin-2-yl]amino}phenyl)methanesulfonamide], the IC50 was determined as 0.93 µM. On to `NS(=O)(=O)Cc1cccc(Nc2ncnc(-c3ccccc3OCc3ccccc3)n2)c1` [Compound B13, 3-[(4-(2-Benzyloxyphenyl)-1,3,5-triazin-2-yl)amino]benzenemethanesulfonamide], for which the IC50 is 0.38 µM. Against the preceding compound, the IC50 is about 2.4-fold lower. For the compound `COc1cc(F)ccc1-c1ncnc(Nc2ccc(S(C)(=O)=O)nc2)n1` [Compound U8, 4-(4-fluoro-2-methoxyphenyl)-N-[6-(methylsulfonyl)pyridin-3-yl]-1,3,5-triazin-2-amine], the IC50 was 0.17 µM. This IC50 is about 2.2-fold lower than that of the compound before.

As for `COc1cc(F)ccc1-c1ncnc(Nc2cccc(CS(N)(=O)=O)c2)n1` [B2′, 1-(3-{[4-(4-fluoro-2-methoxyphenyl)-1,3,5-triazin-2-yl]amino}phenyl)methanesulfonamide hydrochloride], half-maximal inhibition (IC50) was put at 0.67 µM. This IC50 lies about 3.9-fold higher than the previous one. The same measure, in the same setting: the value for `COc1cc(F)ccc1-c1ncnc(Nc2cccc(CS(N)(=O)=O)c2)n1` [Compound B2, 3-[(4-(4-Fluoro-2-methoxyphenyl)-1,3,5-triazin-2-yl)amino]benzenemethanesulfonamide] was 0.93 µM. Compound `CC(C)Oc1cc(F)ccc1-c1ncnc(Nc2cccc(CS(N)(=O)=O)c2)n1` [Compound U2, 1-[3-({4-[4-fluoro-2-(propan-2-yloxy)phenyl]-1,3,5-triazin-2-yl}amino)phenyl]methanesulfonamide] yielded an IC50 of 0.88 µM.

The next assay has as its target T2, CDK8/Cyclin C (Homo sapiens, UniProt P49336).
T2 construct: purchased Invitrogen
The assay is described as follows: LanthaScreen Eu Kinase Binding Assay, CDK8. The settings on record: tracer 236, read-out: Affinity (Kd) CDK8. The procedure:
This protocol describes how the LanthaScreen Eu Kinase Binding Assay was performed to determine dissociation constants (Kd) of compounds of general formula (I) and CDK/Cyclin complexes. The principle behind this assay is based upon the binding and displacement of an Alexa Fluor 647-labeled tracer, which binds to the active site of kinases. Binding of the tracer to the kinase is detected using a Eu-labeled antibody. Simultaneous binding of both the tracer and antibody to the kinase gives rise to a FRET-signal. Binding of an inhibitor to the kinase competes for binding with the tracer, resulting in a loss of FRET.
The compounds of general formula (I) summarized in Table 1 were diluted from a 10 mM DMSO stock solution 1:10 in a total volume of 15 μL DMSO. This compound predilution was then serial diluted 1:3 over 8 steps in DMSO and briefly spun down. Each compound solution was now diluted 1:33.33 in kinase buffer (HEPES: 20 mM, pH: 8.0; MgCl2: 10 mM; DTT: 1 mM; Brij-35: 0.01%), mixed thoroughly and spun down. For every sample, 5 μL of the diluted compound were mixed with 5 μL tracer working solution (e.g. 60 nM tracer 236 in kinase buffer for CDK2/Cyclin A) and 5 μL CDK/Cyclin/Anti-GST-AB-working solution (e.g. 15 nM CDK2/Cyclin A, 1:250 dilution of Anti-GST-AB in kinase buffer) in a well of a small volume 384 well plate (Corning Incorporated, Corning, N.Y., USA; order no. 3673). […] For positive controls, in each well 5 μL of DMSO working solution (3% DMSO diluted in kinase buffer) was mixed with 5 μL CDK/Cyclin/Anti-GST-AB-working solution: (e.g. 15 nM CDK2/Cyclin A, 1:250 dilution of Anti-GST-AB in kinase buffer) and 5 μL Tracer working solution (e.g. 60 nM Tracer 236 in kinase buffer for CDK2/Cyclin A). Positive and negative controls were calculated from at least 8 different sample wells. The 384 well plates were mixed in a Teleshaker plate mixer (Beckman Coulter, Brea, Calif., USA) at 2000 rpm for 40 sec, and incubated for 1 h at room temperature before reading. The FRET signal was measured at 340 nm excitation, 665 nm and 615 nm emission (for the kinase tracer and LanthaScreen Eu-AB, respectively) with an Envision spectrophotometer (Perkin Elmer, Waltham, Mass., USA) with 50 μs delay and 300 μs integration time. Kd values were determined from the sigmoidal dose response curves with the software Quattro Workflow (Quattro GmbH, Munich, Germany).
For the compound `COc1cc(Cl)ccc1-c1ncnc(Nc2cccc(CS(N)(=O)=O)c2)n1` [Compound B6, 3-[(4-(4-Chloro-2-methoxyphenyl)-1,3,5-triazin-2-yl)amino]benzenemethanesulfonamide], the equilibrium dissociation constant (Kd) turned out to be 6780 nM. As for `NS(=O)(=O)Cc1cccc(Nc2ncnc(-c3ccccc3OCc3ccncc3)n2)c1` [Compound B16, 3-[(4-(2-((4-Pyridinyl)methoxy)phenyl)-1,3,5-triazin-2-yl)amino]benzenemethanesulfonamide], the dissociation constant Kd is over 10000 nM. On to `COc1cc(F)ccc1-c1ncnc(Nc2cccc(CS(N)(=O)=O)c2)n1` [B2″, 1-(3-{[4-(4-fluoro-2-methoxyphenyl)-1,3,5-triazin-2-yl]amino}phenyl)methanesulfonamide trifluoroacetic acid salt], for which the Kd is over 10000 nM. With `NS(=O)(=O)Cc1cccc(Nc2ncnc(-c3ccccc3OCc3ccccc3)n2)c1` [B13′, 3-[(4-(2-Benzyloxyphenyl)-1,3,5-triazin-2-yl)amino]benzenemethanesulfonamide trifluoroacetic acid salt], the Kd is 4860 nM. Take `CCOc1ccccc1-c1ncnc(Nc2cccc(CS(N)(=O)=O)c2)n1` [Compound B12, 3-[(4-(2-Ethoxyphenyl)-1,3,5-triazin-2-yl)amino]benzenemethanesulfonamide]: the Kd is over 10000 nM. Take `NS(=O)(=O)Cc1cccc(Nc2ncnc(-c3ccccc3Oc3ccccc3)n2)c1` [Compound B14, 1-(3-{[4-(2-phenoxyphenyl)-1,3,5-triazin-2-yl]amino}phenyl)methanesulfonamide]: the dissociation constant Kd is 5700 nM. Consider `COc1cccc(F)c1-c1ncnc(Nc2cccc(CS(N)(=O)=O)c2)n1` [Compound B4, 3-[(4-(6-Fluoro-2-methoxyphenyl)-1,3,5-triazin-2-yl)amino]benzenemethanesulfonamide], for which the Kd was over 10000 nM.
